Assay results from ChEMBL document CHEMBL2046303, “Discovery and Development of Potent LFA-1/ICAM-1 Antagonist SAR 1118 as an Ophthalmic Solution for Treating Dry Eye” (ACS Med Chem Lett, 2012).
Calls of active or inactive are those of the source. No cut-off for these calls is given here.

How the values were obtained:
[1] = target: T1, Intercellular adhesion molecule (ICAM-1), Integrin alpha-L/beta-2 (Homo sapiens, UniProt P05107+P05362+P20701); assay: Antagonist activity at LFA-1/ICAM-1 in human HuT-78 T-cells assessed as inhibition of cell adhesion after 1 hr by p-nitrophenyl n-acetyl-beta-D-glucosaminide method in presence of 10% human serum; format: functional, cell-based, HuT78
[2] = target: T1, Intercellular adhesion molecule (ICAM-1), Integrin alpha-L/beta-2; assay: Antagonist activity at LFA-1/ICAM-1 in human HuT-78 T-cells assessed as inhibition of cell adhesion after 1 hr by p-nitrophenyl n-acetyl-beta-D-glucosaminide method; format: functional, cell-based, HuT78
[3] = Solubility of the compound in phosphate-buffered saline; format: physicochemical
Rattus norvegicus = assay: AUC in Sprague-Dawley rat at 5 mg/kg, iv; format: ADME, organism-based, Plasma; set-up: dose 5 mg/kg, route intravenous; conditions: in vivo
[4] = Metabolic stability in rat liver microsomes assessed as compound remaining after 30 mins; format: ADME, Microsome; conditions: read-out: Stability
[5] = Metabolic stability in human liver microsomes assessed as compound remaining after 30 mins; format: ADME, Microsome; conditions: read-out: Stability
[6] = Clearance in Sprague-Dawley rat at 5 mg/kg, iv; format: ADME, organism-based; set-up: dose 5 mg/kg, route intravenous; conditions: in vivo
[7] = Half life in Sprague-Dawley rat at 5 mg/kg, iv; format: ADME, organism-based; set-up: dose 5 mg/kg, route intravenous; conditions: in vivo
[8] = Drug uptake in rat bulbar conjunctiva administered topically as ophthalmic solution after 30 mins; format: ADME; conditions: in vivo, topical_or_ocular, 0.5 h
[9] = Drug uptake in rat cornea administered topically as ophthalmic solution after 30 mins; format: ADME, tissue-based; conditions: in vivo, topical_or_ocular, 0.5 h
[10] = Drug uptake in dog cornea administered topically as ophthalmic solution after 30 mins; format: ADME, tissue-based, Canis lupus familiaris; conditions: in vivo, topical_or_ocular, 0.5 h
[11] = Drug uptake in dog bulbar conjunctiva administered topically as ophthalmic solution after 30 mins; format: ADME, tissue-based, Canis lupus familiaris; conditions: in vivo, topical_or_ocular, 0.5 h
[12] = Drug uptake in rat palpebral conjunctiva administered topically as ophthalmic solution after 30 mins; format: ADME, tissue-based; conditions: in vivo, topical_or_ocular, 0.5 h
[13] = Drug uptake in dog palpebral conjunctiva administered topically as ophthalmic solution after 30 mins; format: ADME, tissue-based, Canis lupus familiaris; conditions: in vivo, topical_or_ocular, 0.5 h
[14] = target: Intercellular adhesion molecule 1 (Homo sapiens) (UniProt P05362); assay: Inhibition of ICAM-1-mediated IL-1beta release
[15] = target: Intercellular adhesion molecule 1 (Homo sapiens) (UniProt P05362); assay: Inhibition of ICAM-1-mediated IFNgamma release
[16] = target: Intercellular adhesion molecule 1 (Homo sapiens) (UniProt P05362); assay: Inhibition of ICAM-1-mediated IL-6 release
[17] = target: Intercellular adhesion molecule 1 (Homo sapiens) (UniProt P05362); assay: Inhibition of ICAM-1-mediated MIP-1alpha release
[18] = target: Intercellular adhesion molecule 1 (Homo sapiens) (UniProt P05362); assay: Inhibition of ICAM-1-mediated IL-10 release
[19] = target: Intercellular adhesion molecule 1 (Homo sapiens) (UniProt P05362); assay: Inhibition of ICAM-1-mediated IL-1alpha release
Canis familiaris = assay: Increase of mean schirmer's tear test in dog administered topically with 1% PBS solution tid for 12 weeks measured after 1 to 12 weeks; format: functional, Canis lupus familiaris
Salmonella typhimurium = assay: Genotoxicity in Salmonella typhimurium by Ames test; format: toxicity, organism-based; conditions: salmonella enterica subsp. enterica serovar typhimurium
Cytochrome P450 2C9 = Cytochrome P450 2C9 (Homo sapiens, UniProt P11712); assay: Inhibition of CYP2C9; format: ADME
Cytochrome P450 3A4 = Cytochrome P450 3A4 (Homo sapiens, UniProt P08684); assay: Inhibition of CYP3A4; format: ADME
Chain of Cytochrome P450 3A4 (P08684 whole entry): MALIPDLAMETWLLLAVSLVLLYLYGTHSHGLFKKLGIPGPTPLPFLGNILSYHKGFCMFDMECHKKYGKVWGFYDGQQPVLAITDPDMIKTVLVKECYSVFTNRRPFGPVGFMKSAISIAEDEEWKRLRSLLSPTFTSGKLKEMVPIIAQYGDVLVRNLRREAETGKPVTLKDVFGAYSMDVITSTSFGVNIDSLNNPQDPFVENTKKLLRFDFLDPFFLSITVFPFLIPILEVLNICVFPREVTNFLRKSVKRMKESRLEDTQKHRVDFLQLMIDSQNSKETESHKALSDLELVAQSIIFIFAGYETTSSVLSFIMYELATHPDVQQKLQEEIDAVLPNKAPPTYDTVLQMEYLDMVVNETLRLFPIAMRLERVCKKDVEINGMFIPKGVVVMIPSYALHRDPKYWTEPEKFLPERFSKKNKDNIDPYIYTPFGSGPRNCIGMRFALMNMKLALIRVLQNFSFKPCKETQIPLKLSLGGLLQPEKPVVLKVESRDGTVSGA

Chain of Intercellular adhesion molecule 1 (Homo sapiens) (P05362 whole entry): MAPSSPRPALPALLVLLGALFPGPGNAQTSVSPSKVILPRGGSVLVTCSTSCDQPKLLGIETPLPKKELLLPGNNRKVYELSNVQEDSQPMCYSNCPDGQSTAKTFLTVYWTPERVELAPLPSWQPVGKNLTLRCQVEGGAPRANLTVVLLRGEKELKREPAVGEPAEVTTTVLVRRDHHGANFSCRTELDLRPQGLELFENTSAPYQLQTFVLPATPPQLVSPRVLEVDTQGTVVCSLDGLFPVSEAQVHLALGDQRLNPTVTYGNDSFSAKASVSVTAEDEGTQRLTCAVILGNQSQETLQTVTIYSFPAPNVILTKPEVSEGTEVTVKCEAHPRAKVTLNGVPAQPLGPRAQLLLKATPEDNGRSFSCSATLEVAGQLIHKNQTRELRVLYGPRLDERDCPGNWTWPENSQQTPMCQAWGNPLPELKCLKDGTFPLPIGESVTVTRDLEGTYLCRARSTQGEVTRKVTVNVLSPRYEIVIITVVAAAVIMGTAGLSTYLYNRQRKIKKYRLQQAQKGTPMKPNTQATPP
T1 sequence (P20701 whole entry): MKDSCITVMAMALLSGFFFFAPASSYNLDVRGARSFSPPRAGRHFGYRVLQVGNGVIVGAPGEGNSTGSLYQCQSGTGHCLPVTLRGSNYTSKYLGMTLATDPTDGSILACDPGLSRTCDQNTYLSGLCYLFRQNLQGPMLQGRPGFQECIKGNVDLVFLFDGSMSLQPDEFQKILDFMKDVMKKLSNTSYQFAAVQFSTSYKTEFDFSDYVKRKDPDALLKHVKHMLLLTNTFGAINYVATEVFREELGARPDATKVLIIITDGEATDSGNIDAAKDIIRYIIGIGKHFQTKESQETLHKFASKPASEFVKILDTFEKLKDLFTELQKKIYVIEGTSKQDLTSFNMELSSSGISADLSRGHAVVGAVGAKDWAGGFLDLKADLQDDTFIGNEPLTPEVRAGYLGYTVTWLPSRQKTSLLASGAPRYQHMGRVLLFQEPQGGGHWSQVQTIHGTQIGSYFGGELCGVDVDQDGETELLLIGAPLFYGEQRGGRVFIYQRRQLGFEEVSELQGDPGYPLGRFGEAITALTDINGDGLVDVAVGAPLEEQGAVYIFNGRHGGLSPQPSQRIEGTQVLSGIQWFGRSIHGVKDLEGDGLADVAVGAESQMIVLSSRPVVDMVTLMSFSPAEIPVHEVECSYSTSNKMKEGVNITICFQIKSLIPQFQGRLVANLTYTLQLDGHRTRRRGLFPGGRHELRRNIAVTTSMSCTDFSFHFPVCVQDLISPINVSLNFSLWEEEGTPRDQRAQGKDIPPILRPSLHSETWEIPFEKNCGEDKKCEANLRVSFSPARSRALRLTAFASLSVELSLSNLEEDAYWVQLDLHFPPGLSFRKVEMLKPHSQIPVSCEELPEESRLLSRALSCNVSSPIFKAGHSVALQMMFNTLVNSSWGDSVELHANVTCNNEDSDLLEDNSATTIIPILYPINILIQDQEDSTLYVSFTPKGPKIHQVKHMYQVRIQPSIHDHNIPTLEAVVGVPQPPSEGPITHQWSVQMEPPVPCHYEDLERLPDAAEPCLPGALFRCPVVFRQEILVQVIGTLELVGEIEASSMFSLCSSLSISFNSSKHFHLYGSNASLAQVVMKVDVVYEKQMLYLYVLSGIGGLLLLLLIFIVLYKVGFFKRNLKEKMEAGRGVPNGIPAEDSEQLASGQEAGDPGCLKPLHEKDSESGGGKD
T1 sequence (P05362 whole entry): as the sequence (P05362 whole entry) above
T1 sequence (P05107 whole entry): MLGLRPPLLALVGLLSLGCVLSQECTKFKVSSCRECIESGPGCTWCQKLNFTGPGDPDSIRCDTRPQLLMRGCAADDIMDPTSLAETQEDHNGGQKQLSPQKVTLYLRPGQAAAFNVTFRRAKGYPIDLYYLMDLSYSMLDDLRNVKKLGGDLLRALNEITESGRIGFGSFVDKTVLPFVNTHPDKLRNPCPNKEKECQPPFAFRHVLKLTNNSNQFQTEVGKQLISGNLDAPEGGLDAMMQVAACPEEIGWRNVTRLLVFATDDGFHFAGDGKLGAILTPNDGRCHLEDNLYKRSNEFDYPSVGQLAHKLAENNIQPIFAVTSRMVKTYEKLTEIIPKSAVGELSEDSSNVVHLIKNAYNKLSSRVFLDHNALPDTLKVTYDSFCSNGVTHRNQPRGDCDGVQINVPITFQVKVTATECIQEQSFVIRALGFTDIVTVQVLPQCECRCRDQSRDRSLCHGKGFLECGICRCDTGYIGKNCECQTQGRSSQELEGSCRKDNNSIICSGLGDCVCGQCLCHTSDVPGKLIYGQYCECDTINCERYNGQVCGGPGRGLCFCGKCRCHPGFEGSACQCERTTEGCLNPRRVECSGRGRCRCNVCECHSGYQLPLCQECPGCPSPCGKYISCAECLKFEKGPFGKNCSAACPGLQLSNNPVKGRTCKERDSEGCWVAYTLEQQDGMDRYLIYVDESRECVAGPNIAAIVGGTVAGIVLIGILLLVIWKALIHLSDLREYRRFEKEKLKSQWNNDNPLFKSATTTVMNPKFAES
Chain of Cytochrome P450 2C9 (P11712 whole entry): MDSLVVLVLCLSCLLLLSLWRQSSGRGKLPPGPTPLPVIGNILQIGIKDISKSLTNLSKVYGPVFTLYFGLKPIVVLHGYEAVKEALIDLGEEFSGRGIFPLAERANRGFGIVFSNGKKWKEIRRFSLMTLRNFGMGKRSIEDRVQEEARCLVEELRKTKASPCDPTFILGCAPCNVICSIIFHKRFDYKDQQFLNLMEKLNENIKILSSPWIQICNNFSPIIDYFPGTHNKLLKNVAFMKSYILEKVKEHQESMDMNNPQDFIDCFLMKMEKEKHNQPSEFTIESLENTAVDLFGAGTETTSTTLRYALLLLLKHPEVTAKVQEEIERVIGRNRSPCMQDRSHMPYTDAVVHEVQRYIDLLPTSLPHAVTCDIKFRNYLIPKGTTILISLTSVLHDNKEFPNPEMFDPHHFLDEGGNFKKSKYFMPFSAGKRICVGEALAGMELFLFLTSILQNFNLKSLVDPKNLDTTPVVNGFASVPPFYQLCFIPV

SMILES	IC50 [1] [µM]	IC50 [2] [µM]	AUC (Rattus norvegicus) [µg·h/mL]	remaining at 0.5 h [4] [%]	remaining at 0.5 h [5] [%]	clearance [6] [L/h/kg]	half-life [7] [min]	other results
C[C@H](O)c1cccc(C[C@H](NC(=O)c2c(Cl)cc3c(c2Cl)CCN(C(=O)c2ccc4ccoc4c2)C3)C(=O)O)c1	0.94	0.014	–	–	–	–	–	–
CS(=O)(=O)c1cccc(C[C@H](NC(=O)c2c(Cl)cc3c(c2Cl)CCN(C(=O)c2ccc4ccoc4c2)C3)C(=O)O)c1Cl	–	0.8	–	–	–	–	–	–
CS(=O)(=O)c1cccc(C[C@H](NC(=O)c2c(Cl)cc3c(c2Cl)CCN(C(=O)c2ccc4ccoc4c2)C3)C(=O)[O-])c1.[Na+] [LIFITEGRAST SODIUM]	–	–	–	–	–	–	–	solubility [3]: ≥ 200 mg/mL
C[C@@H](O)c1cccc(C[C@H](NC(=O)c2c(Cl)cc3c(c2Cl)CCN(C(=O)c2ccc4ccoc4c2)C3)C(=O)O)c1	4	0.01	–	–	–	–	–	–
CS(=O)(=O)c1ccc(C[C@H](NC(=O)c2c(Cl)cc3c(c2Cl)CCN(C(=O)c2ccc4ccoc4c2)C3)C(=O)O)o1	–	–	1.51	> 95	65	3.6	25.8	–
CS(=O)(=O)c1cc(Cl)cc(C[C@H](NC(=O)c2c(Cl)cc3c(c2Cl)CCN(C(=O)c2ccc4ccoc4c2)C3)C(=O)O)c1	0.2	0.01	–	–	–	–	–	–
CS(=O)(=O)c1cccc(C[C@H](N[14C](=O)c2c(Cl)cc3c(c2Cl)CCN(C(=O)c2ccc4ccoc4c2)C3)C(=O)O)c1	–	–	–	–	–	–	–	Drug uptake [8]: Active; Drug uptake [9]: Active; Drug uptake [10]: Active; Drug uptake [11]: Active; Drug uptake [12]: Active; Drug uptake [13]: Active
CS(=O)(=O)c1cccc(C[C@H](NC(=O)c2c(Cl)cc3c(c2Cl)CCN(C(=O)c2ccc4ccoc4c2)C3)C(=O)O)c1 [listing 1 of 2 here]	–	–	–	–	–	–	–	inhibition [14]: Active; inhibition [15]: Active; inhibition [16]: Active; inhibition [17]: Active; inhibition [18]: Active; inhibition [19]: Active
CC(C)c1cccc(C[C@H](NC(=O)c2c(Cl)cc3c(c2Cl)CCN(C(=O)c2ccc(Cl)cc2)C3)C(=O)O)c1	> 10	0.01	–	–	–	–	–	–
CS(=O)(=O)c1cc(F)cc(C[C@H](NC(=O)c2c(Cl)cc3c(c2Cl)CCN(C(=O)c2ccc4ccoc4c2)C3)C(=O)O)c1	0.26	0.01	1.19	> 95	> 95	4.83	39	–
CP(C)(=O)c1cccc(C[C@H](NC(=O)c2c(Cl)cc3c(c2Cl)CCN(C(=O)c2ccc4ccoc4c2)C3)C(=O)O)c1	0.49	0.058	2.26	> 95	> 95	2.22	22.2	–
CS(=O)(=O)c1cc(C[C@H](NC(=O)c2c(Cl)cc3c(c2Cl)CCN(C(=O)c2ccc4ccoc4c2)C3)C(=O)O)ccc1Cl	2	0.12	–	–	–	–	–	–
CS(=O)(=O)c1ccc(C[C@H](NC(=O)c2c(Cl)cc3c(c2Cl)CCN(C(=O)c2ccc(Cl)cc2)C3)C(=O)O)cc1	–	0.25	–	–	–	–	–	–
CS(=O)(=O)c1ccc(Cl)c(C[C@H](NC(=O)c2c(Cl)cc3c(c2Cl)CCN(C(=O)c2ccc4ccoc4c2)C3)C(=O)O)c1	–	0.12	–	–	–	–	–	–
CS(=O)(=O)c1cncc(C[C@H](NC(=O)c2c(Cl)cc3c(c2Cl)CCN(C(=O)c2ccc4ccoc4c2)C3)C(=O)O)c1	0.032	0.039	1.28	> 95	> 95	4.41	37.2	–
CS(=O)(=O)c1ccc(C[C@H](NC(=O)c2c(Cl)cc3c(c2Cl)CCN(C(=O)c2ccc(Cl)cc2)C3)C(=O)O)o1	0.24	0.006	1.13	> 95	92	4.46	16.2	–
CS(=O)(=O)c1ccccc1C[C@H](NC(=O)c1c(Cl)cc2c(c1Cl)CCN(C(=O)c1ccc(Cl)cc1)C2)C(=O)O	–	> 1	–	–	–	–	–	–
CC(=O)c1cccc(C[C@H](NC(=O)c2c(Cl)cc3c(c2Cl)CCN(C(=O)c2ccc4ccoc4c2)C3)C(=O)O)c1	5.6	0.012	–	–	–	–	–	–
C[S+]([O-])c1cncc(CC(NC(=O)c2c(Cl)cc3c(c2Cl)CCN(C(=O)c2ccc4ccoc4c2)C3)C(=O)O)c1 (racemic)	0.05	0.057	0.753	> 95	> 95	7.27	16.2	–
CS(=O)(=O)c1cccc(C[C@H](NC(=O)c2c(Cl)cc3c(c2Cl)CCN(C(=O)c2ccc(Cl)cc2)C3)C(=O)O)c1	0.2	0.003	–	–	–	–	–	–

Now from value to molecule, other results behind:

IC50 [1] [µM]	IC50 [2] [µM]	AUC (Rattus norvegicus) [µg·h/mL]	remaining at 0.5 h [4] [%]	remaining at 0.5 h [5] [%]	clearance [6] [L/h/kg]	half-life [7] [min]	SMILES	other results
> 10	0.01	–	–	–	–	–	CN(C)S(=O)(=O)c1cccc(C[C@H](NC(=O)c2c(Cl)cc3c(c2Cl)CCN(C(=O)c2ccc4ccoc4c2)C3)C(=O)O)c1	–
> 10	0.2	–	–	–	–	–	CC(C)S(=O)(=O)c1cccc(C[C@H](NC(=O)c2c(Cl)cc3c(c2Cl)CCN(C(=O)c2ccc4ccoc4c2)C3)C(=O)O)c1	–
0.64	0.013	–	–	–	–	–	CNS(=O)(=O)c1cccc(C[C@H](NC(=O)c2c(Cl)cc3c(c2Cl)CCN(C(=O)c2ccc4ccoc4c2)C3)C(=O)O)c1	–
0.074	0.009	0.705	> 95	71	8.35	46.8	CS(=O)(=O)c1cccc(C[C@H](NC(=O)c2c(Cl)cc3c(c2Cl)CCN(C(=O)c2ccc4ccoc4c2)C3)C(=O)O)c1 [listing 2 of 2 here]	Activity (Canis familiaris): 3.4 mm; Activity (Salmonella typhimurium): Non-toxic; IC50 (Cytochrome P450 2C9): 3 µM; IC50 (Cytochrome P450 3A4): > 20 µM
0.2	0.004	2.43	> 95	71	2.06	61.8	NS(=O)(=O)c1cccc(C[C@H](NC(=O)c2c(Cl)cc3c(c2Cl)CCN(C(=O)c2ccc4ccoc4c2)C3)C(=O)O)c1	–
0.18	0.002	–	–	–	–	–	CCS(=O)(=O)c1cccc(C[C@H](NC(=O)c2c(Cl)cc3c(c2Cl)CCN(C(=O)c2ccc4ccoc4c2)C3)C(=O)O)c1	–
